According to patent US5039665A, “Use of fructose-1,6-diphosphate for treating myocardial infarction” (priority 1990, dated 1991):
Where “and” joins values, the source holds several entries; their conditions need not be identical. Equal entries are not always repeated. Entries after “also recorded” stand apart in the source; their conditions may differ.

Tests used:
[1] = tested on: fluid deprived dogs after endotoxin; assay: endotoxin shock in fluid deprived dogs (1 mg/kg endotoxin); type: in vivo, dog; settings: no fluid given; three pairs
Excerpt: In three pairs no fluid was given except for the FDP and glucose.

[2] = tested on: dogs given potassium cyanide; assay: potassium cyanide poisoning in dogs; type: in vivo, dog; settings: 2 mg/kg IV potassium cyanide; 0.5 gm/kg over 30 minutes
[3] = tested on: hearts of mongrel dogs subjected to normothermic arrest; assay: global ischemia on cardiopulmonary bypass, normothermic arrest for one hour; type: in vivo, dog
Protocol: To evaluate the effect of FDP on global ischemia, 14 mongrel dogs were placed on cardiopulmonary bypass and their hearts were subjected to normothermic arrest for one hour. Seven animals had 50 ml. of 5% glucose in 0.9% NaCl infused into the base of the aorta at 0 minutes, 20 minutes and 40 minutes following cross-clamping and, systemically, during reperfusion. The remaining 7 animals were treated identically except that 50 mg. of FDP was given instead of glucose and 2mg/kg/minute was infused systemically during reperfusion. Hemodynamic measurements were taken before ischemia and at 15 and 30 minutes following reperfusion using an isovolumetric technique.

[4] = tested on: dogs subjected to toxic doses of Digoxin; assay: digoxin toxicity in dogs; type: in vivo, dog; settings: for hemodynamic parameters (cardiac output, arterial pressure): dog, in vivo
Protocol: Dogs subjected to toxic doses of Digoxin were treated with FDP and glucose. […] Also the dogs treated with FDP survived, while the controls treated with Dextrose 5% died within 3 hours after administration of Digoxin. In this paired study 10 anesthesized dogs received 3 mg. IV Digoxin as bolus injection. Five of the digs received 20 minutes after the digoxin injection 1 gm. of FDP and then on 2 mg/kg as a constant infusion for the next 3 hours. The five controls received in the same manner Dextrose 5%. […] (Pi<0.001.).

whole blood = assay: blood preservation: ATP content of refrigerated blood; parameters: species or system dog
Protocol: Blood specimens taken from a number of dogs were mixed with FDP in the following proportions: F1-25mg of FDP per 10ml of blood and F2-50mg of FDP per 10ml of blood. The same proportion was prepared with glucose: G1-25mg of glucose per 10ml of blood and G2-50mg of glucose per 10ml of blood. The blood specimens were refrigerated for 24 hours and then the blood was tested for ATP content after 24 hours 14 days.

erythrocytes = assay: incubation of erythrocytes: ATP and 2-3 DPG content; type: cell-based
Excerpt: To allow for a broader and more complete interpretation of the results, a small paragraph will be devoted to the ability of FDP to cross the cellular membranes.

human WBC = assay: carbohydrate metabolism of human white blood cells in vitro; type: cell-based; settings: for ATP content: incubated at 37° Celsius
Protocol: The tests were also conducted to investigate the effect of FDP on white blood cells (WBC) on metabolism in vitro. […] It was experimentally assessed whether FDP can stimulate the carbohydrate metabolism of these cells at rest. A similar phenomenon observed for normal human erythrocytes, sickle cells and dog erythrocytes. From healthy humans and dogs, the white blood cells were separated and incubated at 37° Celsius for various periods of time with FDP, glucose and normal saline. At the end of incubation, ATP and intermediates of the glycolytic pathway were assessed. […] The pyruvic acid concentration in dog WBC incubated with FDP was 10 times greater than those incubated in glucose while those for the human WBC, this difference was of much lesser degree (X2). The dihydroxyacetone (DHA) in the human and canine WBC was 5 to 10 times greater in the FDP incubated than in the glucose ones.

[5] = tested on: dogs anesthetized with Surital; assay: analeptic effect of intra-carotid administration on Surital (thiamylal) anesthesia in dogs; type: in vivo, dog; settings: for time required for return of observable eyelid reflex: after beginning the infusion into the carotid artery (±SDM); for time required to regain walking ability: mean, p<0.001 FDP vs dextrose; for Able To Sit / Able To Walk / Eyes Open / Lifts Head / Response To Pain: time after beginning of infusion, individual dogs
Protocol: In this paired test 10 dogs were anesthetized with Surital 35mg/kg IV. Within 10 minutes after induction of anesthesia, a #7 Sones catheter was placed in a common carotid artery via the femoral artery under fluoroscopic guidance. […] Immediately following the contrast media injection the infusion of FDP or glucose was initiated (9-13 min. after induction of anesthesia). The FDP was prepared as a 5% solution and infused at a constant rate of 1.91 ml/min. (97.5 mg/min.) into a main carotid artery. The controls received equal amounts of 5% dextrose via the same route. The analeptic effect of FDP on signs, stages and depth of anesthesia was evaluated by determining the time required for reappearance of eyelid reflex, opening of eyes, deglutiton, response to pain, lifting of the head, sitting, and when the animal was able to walk.

[6] = tested on: dogs subjected to endotoxin shock; assay: endotoxin shock in dogs (E. coli endotoxin) with fluid support; type: in vivo, dog
Protocol: The study was also conducted to determine whether IV administration of FDP to dogs subjected to lethal doses of endotoxin will prevent damage to the intestinal mucosa, and death. The rationale was that endotoxin per se and its deleterious effect on hemolate phase acidosis inhibits glycolysis by inactivation of the rate limiting enzyme phosphofructokinase.
Endotoxin shock was produced in digs by IV injection of E. coli endotoxin. Survival of control animals which received glucose and volume replacement was 18%d while for those treated with FDP it was 90%.
FIG. 5 is a diagram showing the intestinal fluid loss and urine output of dogs subjected to endotoxin shock. Seven dogs were treated with equimolar FDP and eight received glucose. All animals received fluid supportive therapy (150 ml. of Rheomacrodex and 300 cc. of Lactate Ringer).
Seven were treated with FDP and the controls (8) received equimolar glucose.

[7] = 25mg per 10ml of blood, 24 hours
[8] = 25mg per 10ml of blood, 48 hours
[9] = 25mg per 10ml of blood, 7 days, Incubate 30' 37°
[10] = 50mg per 10ml of blood, 24 hours
[11] = 50mg per 10ml of blood, 48 hours
[12] = 50mg per 10ml of blood, 7 days, Incubate 30' 37°

In the case of `O=C[C@H](O)[C@@H](O)[C@H](O)[C@H](O)CO` [glucose, reference compound], the time to death [1] is reported as 21/2, the survival [2] is reported as “died” and the “ML to LVEDP of 20 mmHg” value ([3]; 15 minutes after reperfusion) is reported as 23.3 ± 1.8 mL. For the same molecule, the “Peak Effective pressure” value ([3]; 15 minutes after reperfusion) was 36.9 ± 4.4 mmHg, the “Peak Mean pressure” value ([3]; 15 minutes after reperfusion) was 17.8 ± 4.2 mmHg and the Peak dp/dt ([3]; 15 minutes after reperfusion) was 1126 ± 216 mmHg/sec. The “ML to LVEDP of 20 mmHg” value ([3]; 30 minutes after reperfusion) was 19.3 ± 1.3 mL, the “Peak Effective pressure” value ([3]; 30 minutes after reperfusion) was 50.8 ± 6.3 mmHg and the “Peak Mean pressure” value ([3]; 30 minutes after reperfusion) was 20.5 ± 2.9 mmHg. The Peak dp/dt ([3]; 30 minutes after reperfusion) was 1698 ± 350 mmHg/sec, the “ML to LVEDP of 20 mmHg” value ([3]; Pre-Ischemia) was 51.4 ± 8.6 mL and the “Peak Effective pressure” value ([3]; Pre-Ischemia) was 144.6 ± 14.6 mmHg. For the same molecule, the “Peak Mean pressure” value ([3]; Pre-Ischemia) was 66.4 ± 7.4 mmHg, the Peak dp/dt ([3]; Pre-Ischemia) was 4894 ± 689 mmHg/sec and the time to death ([4]; after administration of Digoxin) was ≤ 3 h. For the same molecule, the “hemodynamic parameters (cardiac output, arterial pressure)” value [4] was “decline in arterial pressure, vomiting, and perfused diarrhea”, the ATP (whole blood; [7]) was 0.22 m mole/ml and the ATP (whole blood; [8]) was 0.32 m mole/ml. For the same molecule, the ATP (whole blood; [9]) was 0.28 m mole/ml, the ATP (whole blood; 25mg per 10ml of blood, 9 days) was 0.26 m mole/ml and the ATP (whole blood; [10]) was 0.44 m mole/ml. For the same molecule, the ATP (whole blood; [11]) was 0.34 m mole/ml, the ATP (whole blood; [12]) was 0.18 m mole/ml and the ATP (whole blood; 50mg per 10ml of blood, 9 days) was 0.40 m mole/ml. For the same molecule, the ATP (whole blood; 14 days, Incubate 40' 37°) was 0.88 m mole/ml, the ATP (whole blood; 14 days, No incubation) was 0.40 m mole/ml and the “ATP content in the erythrocytes” value (erythrocytes; equimolar, same conditions) was “failed to increase the ATP content”. The ATP content (human WBC) was 1.28±0.21 m.mole/#WBC, the “time required for return of observable eyelid reflex” value [5] was 70.00 ± 25 min and the “time required to regain walking ability” value [5] was 295.00 ± 24.49 min. The “Able To Sit” value [5] was 300 min and 225 min and 310 min and 215 min, the “Able To Walk” value [5] was 310 min and 300 min and 330 min and 280 min and 265 min and the “Eyes Open” value [5] was 80 min and 75 min and 105 min and 54 min and 40 min. For the same molecule, the “Lifts Head” value [5] was 170 min and 135 min and 190 min and 165 min and 120 min, the “Response To Pain” value [5] was 120 min and 130 min and 160 min and 125 min and 100 min and the “blood in the fluid lost from the intestine” value ([6]; dog, in vivo) was “In all controls there was blood in the fluid lost from the intestine”. It also gave a survival ([6]; dog, in vivo) of 18%.
In the case of `O=C(COP(=O)(O)O)[C@@H](O)[C@H](O)[C@H](O)COP(=O)(O)O` [FDP, fructose-1,6-diphosphate], the survival [1] is reported as “survived and are still living (five months after the experiment)”, the survival [2] is reported as “survived” and the “ML to LVEDP of 20 mmHg” value ([3]; 15 minutes after reperfusion) is reported as 33.6 ± 3.7 mL. The “Peak Effective pressure” value ([3]; 15 minutes after reperfusion) was 102.1 ± 11.5 mmHg, the “Peak Mean pressure” value ([3]; 15 minutes after reperfusion) was 52.8 ± 5.4 mmHg and the Peak dp/dt ([3]; 15 minutes after reperfusion) was 2242 ± 226 mmHg/sec. For the same molecule, the “ML to LVEDP of 20 mmHg” value ([3]; 30 minutes after reperfusion) was 36.1 ± 3.3 mL, the “Peak Effective pressure” value ([3]; 30 minutes after reperfusion) was 125 ± 11.5 mmHg and the “Peak Mean pressure” value ([3]; 30 minutes after reperfusion) was 61.4 ± 5.1 mmHg. The Peak dp/dt ([3]; 30 minutes after reperfusion) was 3999 ± 404 mmHg/sec, the “contractility and compliance during recovery” value ([3]; Intra-aortic and systemic administration) was “Both contractility and compliance are vastly improved” and the “ML to LVEDP of 20 mmHg” value ([3]; Pre-Ischemia) was 39.3 ± 3.2 mL. For the same molecule, the “Peak Effective pressure” value ([3]; Pre-Ischemia) was 165 ± 12.9 mmHg, the “Peak Mean pressure” value ([3]; Pre-Ischemia) was 77.5 ± 4.6 mmHg and the Peak dp/dt ([3]; Pre-Ischemia) was 4710 ± 689 mmHg/sec. For the same molecule, the survival ([4]; 3 mg. IV Digoxin) was “survived”, the digitalis induced dysarhythmia ([4]; 3 mg. IV Digoxin, FDP 1 gm. then 2 mg/kg infusion for 3 hours) was “suppresses significantly the digitalis induced dysarhythmia” and the “occurrence of dysarhythmia versus controls, significance” value ([4]; P < 0.001) was “significantly less in the group treated with FDP”. The “hemodynamic parameters (cardiac output, arterial pressure)” value [4] was “no alternation in hemodynamic parameters”, the ATP (whole blood; [7]) was 2.32 m mole/ml and the ATP (whole blood; [8]) was 2.34 m mole/ml. The ATP (whole blood; [9]) was 0.70 m mole/ml, the ATP (whole blood; 25mg per 10ml of blood, 9 days) was 0.82 m mole/ml and the ATP (whole blood; [10]) was 3.34 m mole/ml. For the same molecule, the ATP (whole blood; [11]) was 2.08 m mole/ml, the ATP (whole blood; [12]) was 2.16 m mole/ml and the ATP (whole blood; 50mg per 10ml of blood, 9 days) was 2.04 m mole/ml. The ATP (whole blood; 14 days, Incubate 40' 37°) was 1.3 m mole/ml, the ATP (whole blood; 14 days, No incubation) was 1.22 m mole/ml and the “ATP and 2-3 DPG in the erythrocytes” value (erythrocytes) was “substantial increase of ATP and 2-3 DPG in the erythrocytes”. The “ATP and 2-3 DPG content in erythrocytes” value (erythrocytes; 5% FDP) was “large increase in their ATP and 2-3 DPG content”, the “effect on carbohydrate metabolism” value (human WBC) was “profound stimulating effect on the carbohydrate metabolism” and the “concentration dependence of ATP production” value (human WBC; 5 to 50 mg/ml FDP, no AMP or ADP) was “independent of the concentration (from 5 to 50 mg/ml), but rather a function of the incubation time”. For the same molecule, the “concentration dependence of ATP increase” value (human WBC; AMP or ADP added) was “the increase of ATP becomes a function of the FDP concentration”, the ATP content (human WBC) was 2.47±0.25 m.mole/#WBC and the “time required for return of observable eyelid reflex” value [5] was 3.70 ± 0.67 min. The “time to regain consciousness and be able to walk (in words)” value ([5]; intra-carotid administration) was “greatly reduces the time required for the animal to regain consciousness and be able to walk”, the “time required to regain walking ability” value [5] was 76.6 ± 16 min and the “Able To Sit” value [5] was 48 min and 47 min and 35 min and 52 min and 40 min. The “Able To Walk” value [5] was 60 min and 70 min and 50 min and 95 min and 82 min, the “Eyes Open” value [5] was 7 min and 14 min and 5 min and 12 min and 4 min and the “Lifts Head” value [5] was 28 min and 33 min and 14 min and 19 min and 20 min. For the same molecule, the “Response To Pain” value [5] was 17 min and 19 min and 10 min and 18 min and 15 min, the Urinary output ([6]; dog, in vivo) was 276±98 ml/6 hours and the “blood in the fluid lost from the intestine” value ([6]; dog, in vivo) was “no blood was observed; also recorded: no blood was noted”. The intestinal fluid loss ([6]; dog, in vivo) was 285±36 ml/6 hours, the “stomach and intestine mucosa findings” value ([6]; dog, in vivo) was “only some vascular congestion was noted” and the survival ([6]; dog, in vivo) was 90%. The “death, intestinal hemorrhage and fluid loss, renal function, mucosal necrosis” value ([6]; lethal doses of endotoxin) was “prevents death, intestinal hemorrhage and fluid loss, conserves normal renal function and protects the mucosa of the stomach and intestine from hemorrhagic necrosis”.
